Laboratory results published in PubChem BioAssay AID266 (DTP/NCI, 2004).
Records with an inconclusive call do not appear.

Tested on: Nude mice, LX-1 lung xenograft intrarenal, tumor weight T/C
Assay: NCI In Vivo Anticancer Drug Screen. Data for tumor model Human Lung LX-1 Xenograft (intrarenal inoculation) in NU/NU BALB/C (nude) mice
Conditions: endpoint: mean tumor weight change, higher = larger tumour
Experimental: The antitumor activity of compounds was measured in mice bearing transplantable tumors. Survival or tumor size were measured and the results are expressed as the measurement made in the treated group (T) divided by the measurement made in the vehicle treated control group (C). The tumor model used in this assay is Human Lung LX-1 Xenograft (intrarenal inoculation) in NU/NU BALB/C (nude) mice

[1] = dose: 300.0 mg/kg/injection, schedule: Q04DX003 (sc), vehicle: saline
[2] = dose: 600.0 mg/kg/injection, schedule: Q04DX003 (sc), vehicle: saline
[3] = dose: 1200.0 mg/kg/injection, schedule: Q04DX003 (sc), vehicle: saline
[4] = dose: 2400.0 mg/kg/injection, schedule: Q04DX003 (sc), vehicle: saline
[5] = dose: 100.0 mg/kg/injection, schedule: Q01DX010 (sc), vehicle: saline with Tween-80
[6] = dose: 200.0 mg/kg/injection, schedule: Q01DX010 (sc), vehicle: saline with Tween-80
[7] = dose: 300.0 mg/kg/injection, schedule: Q04DX003 (sc), vehicle: saline with Tween-80
[8] = dose: 600.0 mg/kg/injection, schedule: Q04DX003 (sc), vehicle: saline with Tween-80
[9] = dose: 1200.0 mg/kg/injection, schedule: Q04DX003 (sc), vehicle: saline with Tween-80
[10] = dose: 2400.0 mg/kg/injection, schedule: Q04DX003 (sc), vehicle: saline with Tween-80
[11] = dose: 200.0 mg/kg/injection, schedule: Q04DX003 (sc), vehicle: saline

Q: How did the T/C [1] turn out when NC(N)=NOCC[C@@H](N)C(=O)O was run?
A: 91 % of control

Q: What about the T/C [2] of the same molecule?
A: 91 % of control

Q: And the T/C [3]?
A: 82 % of control

Q: And the T/C [4]?
A: 59 % of control

Q: CN(C)c1nc(N(C)C)nc(N(C)C)n1 was tested. Which T/C (dose: 12.5 mg/kg/injection, schedule: Q01DX010 (sc), vehicle: saline with Tween-80) did it give?
A: 63 % of control

Q: What about the T/C (dose: 25.0 mg/kg/injection, schedule: Q01DX010 (sc), vehicle: saline with Tween-80) of the same molecule?
A: 95 % of control

Q: What about the T/C (dose: 60.0 mg/kg/injection, schedule: Q01DX010 (sc), vehicle: saline with Tween-80) of the same molecule?
A: 51 % of control

Q: What about the T/C [5] of the same molecule?
A: 121 % of control

Q: What about the T/C (dose: 120.0 mg/kg/injection, schedule: Q01DX010 (sc), vehicle: saline with Tween-80) of the same molecule?
A: 58 % of control

Q: And the T/C [6]?
A: 74 % of control

Q: CSc1cc(=O)n2c3ccccc3c3ccnc1c32 was tested. Which T/C (dose: 80.0 mg/kg/injection, schedule: Q04DX003 (sc), vehicle: saline with Tween-80) did it give?
A: 56 % of control

Q: And the T/C (dose: 160.0 mg/kg/injection, schedule: Q04DX003 (sc), vehicle: saline with Tween-80)?
A: 64 % of control

Q: And the T/C (dose: 320.0 mg/kg/injection, schedule: Q04DX003 (sc), vehicle: saline with Tween-80)?
A: 107 % of control

Q: Which results are given for O=C(CCCCCCC(=O)ON1C(=O)CCC1=O)ON1C(=O)CCC1=O?
A: T/C [7]: 104 % of control; T/C [8]: 95 % of control; T/C [9]: 89 % of control; T/C [10]: 72 % of control

Q: With O=NN(CCCl)C(=O)NCCO as the molecule, how does the T/C (dose: 3.13 mg/kg/injection, schedule: Q04DX003 (sc), vehicle: water) read?
A: 113 % of control

Q: And the T/C (dose: 6.25 mg/kg/injection, schedule: Q04DX003 (sc), vehicle: water)?
A: 26 % of control

Q: And the T/C (dose: 12.5 mg/kg/injection, schedule: Q04DX003 (sc), vehicle: water)?
A: -25 % of control

Q: COC(=O)CC(N)C(=O)O (stereo not drawn) was tested. Which T/C [1] did it give?
A: 84 % of control

Q: And the T/C [2]?
A: 80 % of control

Q: What about the T/C [3] of the same molecule?
A: 55 % of control

Q: And the T/C [4]?
A: 54 % of control

Q: For CC[C@H]1CN2CCc3cc(OC)c(OC)cc3[C@@H]2C[C@@H]1C[C@H]1NCCc2cc(OC)c(OC)cc21, which T/C (dose: 4.0 mg/kg/injection, schedule: Q01DX010 (sc), vehicle: saline) is on record?
A: 81 % of control

Q: With Cc1c(CNc2ccc(C(=O)NC(CC(=O)O)C(=O)O)cc2)ccc2nc(N)nc(N)c12 (stereo not drawn) as the molecule, how does the T/C (dose: 12.5 mg/kg/injection, schedule: Q04DX003 (sc), vehicle: saline with Tween-80) read?
A: 100 % of control

Q: What about the T/C (dose: 25.0 mg/kg/injection, schedule: Q04DX003 (sc), vehicle: saline with Tween-80) of the same molecule?
A: 71 % of control

Q: And the T/C (dose: 50.0 mg/kg/injection, schedule: Q04DX003 (sc), vehicle: saline with Tween-80)?
A: 32 % of control

Q: What does the source list for C[C@@H]1C[C@@H]([C@H](O)CC2CC(=O)NC(=O)C2)C(=O)[C@@H](C)C1?
A: T/C (dose: 18.75 mg/kg/injection, schedule: Q04DX003 (sc), vehicle: saline): 94 % of control; T/C (dose: 37.5 mg/kg/injection, schedule: Q04DX003 (sc), vehicle: saline): 114 % of control; T/C (dose: 75.0 mg/kg/injection, schedule: Q04DX003 (sc), vehicle: saline): 118 % of control; T/C (dose: 150.0 mg/kg/injection, schedule: Q04DX003 (sc), vehicle: saline): 110 % of control

Q: Which T/C [11] does the source give for NCCCNCCSP(=O)(O)O here?
A: 99 % of control

Q: And the T/C (dose: 400.0 mg/kg/injection, schedule: Q04DX003 (sc), vehicle: saline)?
A: 78 % of control

Q: And the T/C (dose: 800.0 mg/kg/injection, schedule: Q04DX003 (sc), vehicle: saline)?
A: 80 % of control

Q: How did the T/C (dose: 50.0 mg/kg/injection, schedule: Q01DX010 (sc), vehicle: saline with Tween-80) turn out when COc1ccc(OC)c(/C=C/c2ccnc3ccccc23)c1 was run?
A: 65 % of control

Q: What about the T/C [5] of the same molecule?
A: 152 % of control

Q: What about the T/C [6] of the same molecule?
A: 251 % of control

Q: What about the T/C (dose: 400.0 mg/kg/injection, schedule: Q01DX010 (sc), vehicle: saline with Tween-80) of the same molecule?
A: 121 % of control

Q: What does the source list for COC1=C(OC)C(=O)C(SC/C=C(\C)CCCC(C)CCCC(C)CCCC(C)C)=CC1=O (stereo not drawn)?
A: T/C (dose: 300.0 mg/kg/injection, schedule: Q04DX003 (ip), vehicle: saline with Tween-80): 82 % of control; T/C (dose: 600.0 mg/kg/injection, schedule: Q04DX003 (ip), vehicle: saline with Tween-80): 110 % of control; T/C (dose: 1200.0 mg/kg/injection, schedule: Q04DX003 (ip), vehicle: saline with Tween-80): 72 % of control

Q: What does the source list for Nc1nc(Br)nc2c1ncn2C1CC(O)C(CO)O1 (stereo not drawn)?
A: T/C (dose: 7.5 mg/kg/injection, schedule: Q03DX003 (ip), vehicle: saline): 66 % of control; T/C (dose: 15.0 mg/kg/injection, schedule: Q03DX003 (ip), vehicle: saline): 77 % of control; T/C (dose: 30.0 mg/kg/injection, schedule: Q03DX003 (ip), vehicle: saline): 72 % of control; T/C (dose: 60.0 mg/kg/injection, schedule: Q03DX003 (ip), vehicle: saline): 59 % of control; T/C (dose: 120.0 mg/kg/injection, schedule: Q03DX003 (ip), vehicle: saline): 74 % of control

Q: N#CN=[N+]([O-])c1ccc(C(=O)O)cc1 was tested. Which T/C (dose: 11.25 mg/kg/injection, schedule: Q04DX003 (sc), vehicle: Klucel (hydroxypropylcellulose) (HPC)) did it give?
A: 66 % of control

Q: And the T/C (dose: 22.5 mg/kg/injection, schedule: Q04DX003 (sc), vehicle: Klucel (hydroxypropylcellulose) (HPC))?
A: 65 % of control

Q: What about the T/C (dose: 45.0 mg/kg/injection, schedule: Q04DX003 (sc), vehicle: Klucel (hydroxypropylcellulose) (HPC)) of the same molecule?
A: 47 % of control

Q: What does the source list for CC(O)CCC(=O)c1ccoc1 (stereo not drawn)?
A: T/C (dose: 15.0 mg/kg/injection, schedule: Q01DX010 (ip), vehicle: saline): 75 % of control; T/C (dose: 30.0 mg/kg/injection, schedule: Q01DX010 (ip), vehicle: saline): 121 % of control

Q: What does the source list for O=CC(S)CO (stereo not drawn)?
A: T/C (dose: 100.0 mg/kg/injection, schedule: Q04DX003 (sc), vehicle: suspension in saline): 94 % of control; T/C (dose: 200.0 mg/kg/injection, schedule: Q04DX003 (sc), vehicle: suspension in saline): 94 % of control; T/C (dose: 400.0 mg/kg/injection, schedule: Q04DX003 (sc), vehicle: suspension in saline): 84 % of control

Q: Which results are given for CN(C)/N=N/c1nc[nH]c1C(N)=O?
A: T/C (dose: 100.0 mg/kg/injection, schedule: Q04DX003 (sc), vehicle: Klucel (hydroxypropylcellulose) (HPC)): -25 % of control; T/C (dose: 200.0 mg/kg/injection, schedule: Q01DX010 (sc), vehicle: Klucel (hydroxypropylcellulose) (HPC)): 2 % of control; T/C (dose: 200.0 mg/kg/injection, schedule: Q04DX003 (sc), vehicle: Klucel (hydroxypropylcellulose) (HPC)): -43 % of control; T/C (dose: 400.0 mg/kg/injection, schedule: Q04DX003 (sc), vehicle: Klucel (hydroxypropylcellulose) (HPC)): -91 % of control; T/C (dose: 800.0 mg/kg/injection, schedule: Q04DX003 (sc), vehicle: Klucel (hydroxypropylcellulose) (HPC)): -100 % of control

Q: Which T/C (dose: 9.38 mg/kg/injection, schedule: Q04DX003 (sc), vehicle: saline with Tween-80) does the source give for Nc1ccc(Cn2ccc3c4c(N)nc(N)nc4ccc32)cc1 here?
A: 68 % of control

Q: What about the T/C (dose: 18.75 mg/kg/injection, schedule: Q04DX003 (sc), vehicle: saline with Tween-80) of the same molecule?
A: 51 % of control

Q: And the T/C (dose: 37.5 mg/kg/injection, schedule: Q04DX003 (sc), vehicle: saline with Tween-80)?
A: 52 % of control

Q: How did the T/C (dose: 75.0 mg/kg/injection, schedule: Q04DX003 (sc), vehicle: suspension in saline) turn out when Nc1ncnc2c(C3OC(CO)C(O)C3O)[nH]nc12 (stereo not drawn) was run?
A: 83 % of control

Q: And the T/C (dose: 150.0 mg/kg/injection, schedule: Q04DX003 (sc), vehicle: suspension in saline)?
A: 37 % of control

Q: For COC(=O)c1ccc(N=NN(C)COC(C)=O)cc1, which T/C (dose: 155.52 mg/kg/injection, schedule: Q04DX003 (ip), vehicle: Klucel (hydroxypropylcellulose) (HPC)) is on record?
A: 78 % of control

Q: What about the T/C (dose: 259.2 mg/kg/injection, schedule: Q04DX003 (ip), vehicle: Klucel (hydroxypropylcellulose) (HPC)) of the same molecule?
A: 47 % of control

Q: What about the T/C (dose: 432.0 mg/kg/injection, schedule: Q04DX003 (ip), vehicle: Klucel (hydroxypropylcellulose) (HPC)) of the same molecule?
A: 60 % of control

Q: What about the T/C (dose: 720.0 mg/kg/injection, schedule: Q04DX003 (ip), vehicle: Klucel (hydroxypropylcellulose) (HPC)) of the same molecule?
A: 64 % of control

Q: For CCOC(=O)c1cn(C)c2c1C(O)=C(C(=O)OC)CC(=O)N2, which T/C [7] is on record?
A: 99 % of control

Q: And the T/C [8]?
A: 55 % of control

Q: What about the T/C [9] of the same molecule?
A: 111 % of control

Q: And the T/C [10]?
A: 154 % of control

Q: CCCCCc1cc(/C=C2/N=C(c3ccc[nH]3)C=C2OC)[nH]c1C was tested. Which T/C (dose: 8.0 mg/kg/injection, schedule: Q04DX003 (sc), vehicle: saline with Tween-80) did it give?
A: 73 % of control

Q: What about the T/C (dose: 16.0 mg/kg/injection, schedule: Q04DX003 (sc), vehicle: saline with Tween-80) of the same molecule?
A: 54 % of control

Q: And the T/C (dose: 32.0 mg/kg/injection, schedule: Q04DX003 (sc), vehicle: saline with Tween-80)?
A: 59 % of control

Q: And the T/C (dose: 64.0 mg/kg/injection, schedule: Q04DX003 (sc), vehicle: saline with Tween-80)?
A: 67 % of control

Q: How did the T/C [11] turn out when Nc1ccn([C@@H](C=O)O[C@@H](C=O)CO)c(=O)n1 was run?
A: 108 % of control
